Tests used:
[1] = system: NAMEC8-SERPINE1prom-Luc cells; experiment: Renilla-luciferase (constitutive CMV promoter) readout for cell numbers; assay type: cell-based, human; conditions: Homo sapiens, 72 h, primary screen; Renilla as readout for cell numbers; relative to DMSO; read-out: % Avr Renilla from DMSO
NAMEC8 [2] = experiment: Mammosphere assay, NAMEC8; assay type: cell-based, human; conditions: NAMEC8
Method: For mammosphere culture, cells were seeded onto 96-well ultralow-adherence plates at 700 cells/well in Mammocult medium (Stem Cell Technologies) supplemented with 4 μg/ml heparin, 0.5 μg/ml hydrocortisone and 1% methylcellulose. Spheres (>100 μm) were counted at 7-10 days later.

[3] = system: Estrogen response element (ERE)-luciferase reporter in NAMEC8; experiment: ERE-luciferase activity assay; assay type: cell-based, human
Method: ERE luciferase construct was kindly provided by Alan Prem Kumar, CSI, Singapore. To measure the ERE-luciferase activity, cells were seeded 24 h before transfection. ERE-luciferase (1 μg) and NSV-Renilla (0.1 μg) were packaged using Lipofectamine 2000 and transfected into NAMEC8. 24 h post-transfection, cells were reseeded into 96 well plates for drug treatment. Firefly and Renilla luciferase activities were measured with the Dual-Glo Luciferase System (Promega) 24 h post-treatment.

SUM159 PACR cells [4] = experiment: Morphology and EMT/lineage markers in SUM159 PACR cells; assay type: cell-based, human
Method: Cells were rinsed twice in ice-cold PBS. Total RNA was extracted using Trizol (Invitrogen) and column-purified with RNeasy kits (Qiagen). cDNA synthesis was performed with 500 ng of total RNA at 37° C. for 2 h using the SuperScript III First-Strand Synthesis System (Thermo Fisher Scientific), and subsequently diluted 5-fold. mRNA levels were measured with gene-specific primers listed below using the ABI Prism 7900HT Sequence Detection System 2.2 (Applied Biosystems). Results were normalized to GAPDH and analyzed using SDS 2.2 software.

SUM159 PACR cells [5] = experiment: Mammosphere assay, SUM159 PACR cells; assay type: cell-based, human
MCF7-Ras = experiment: Tumor growth of ex vivo pre-treated MCF7-Ras injected subcutaneously; assay type: in vivo, NSG mice; conditions: ex vivo treatment before injection
Method: All animal experiments were approved by the Agency for Science Technology and Research Singapore-Biological Resource Centre IACUC (Protocol number 140940). For pre-treated SUM159 and MCF7-Ras cells, 1×10^6 cells were suspended in 100 μl media containing 50% matrigel and injected subcutaneously into both flanks of female NSG mice. The NSG mice were checked for tumor by palpation once a week and tumors were harvested when they reached ˜15 mm in diameter. For treatment in NSG mice, 1×10^5 NAMEC8-Ras cells were suspended in 100 μl media containing 50% matrigel and injected subcutaneously into both flanks of NSG mice. The NSG mice were checked for tumor formation by palpation and when tumors were about 3 mm, mice were randomized into two groups: vehicle (5% DMSO in corn oil) and treatment (Bexarotene, 100 mg/kg/day oral dosing). Tumor size was measured every week using Vernier calipers and mice were sacrificed when tumors reached ˜15 mm or after ˜4 weeks of treatment. For patient-derived cells, 2×10^6 cells were injected subcutaneously per site in NSG mice.

NAMEC8 [6] = experiment: Lipidomic analysis (LC-MS/MS); assay type: cell-based, human; conditions: NAMEC8 bexarotene vs DMSO
From the text: Lipids from cell pellets were extracted using butanol:methanol (1:1) as extraction solvent. The extraction solvent included an internal standard mixture consisting of 17:0 LPC (Lysophosphocholine), C14 LPE (Lysophosphoethanolamine), C17 Ceramide, C17 phosphocholine, C17 phosphoserine, C17:0 PG, C8-Ceramide, DMPE (1,2-dimyristoyl-glycero-3-phosphoethanolamine), DMPG (1,2-dimyristoyl-glycero-3-phospho-(1′rac-glycerol), DMPS (dimyristoyl-glycero-phosphoserine), 12:0 DG (1,2-dilauroyl-sn-glycerol), C8 GluCer (D-glucosyl-β1-1′-N-octanoyl-D-erythro-sphingosine), 24:0 SM (N-lignoceroyl-D-erythro-sphingosylphosphorylcholine), 24:1 SM (N-nervonoyl-D-erythro-sphingosylphosphorylcholine), d5-TAG 48:0. All the standards were obtained from Avanti Polar Lipids (Alabaster, AL, USA) except for d5-TAG 48:0 that was obtained from CDN isotopes. All standards were added to a final concentration of 100 ng/ml. 100 μl of the extraction solvent including the standards were added to 1×10^7 cells in a vial containing the cell pellet. The mixture was vortexed for 15 s. […]
Samples were analysed with a liquid chromatography-tandem mass spectrometry (LC-MS/MS) system (Agilent 1290 UHPLC connected to Agilent 6490 QQQ). […] Lipids were quantified in positive multiple reaction monitoring (MRM) mode. […] Data were extracted using MassHunter Quantitative Analysis software (Agilent). […]

C=C(c1ccc(C(=O)O)cc1)c1cc2c(cc1C)C(C)(C)CCC2(C)C [Bexarotene] was tested, and the viability at 10 µM [1] was 87.5%, the “mammosphere formation after drug withdrawal” value (NAMEC8 [2]) was “partial reestablishment of mammosphere-forming ability” and the ERE-luciferase reporter activity [3] was “increased”. The “phenotype (morphology, epithelial and luminal markers)” value (SUM159 PACR cells [4]) was “changed from a mesenchymal-like to an epithelial-like phenotype”, the mammosphere-forming ability (SUM159 PACR cells [5]) was “reduced mammosphere-forming ability” and the tumor cell growth (MCF7-Ras) was “no impact on the tumor cell growth was observed”. For the same compound, the “lipid species content (PI, PG, PC, PE, PS)” value (NAMEC8 [6]) was “dramatically increased”.

Reference: patent publication US12667546B2, “Methods for manipulating cell state transitions in cancer” (AGENCY FOR SCIENCE, TECHNOLOGY AND RESEARCH, priority 2018, dated 2026)
